What all share (test): DTP human tumour cell line panel, 48 h
The test system of assay [1] is DU-145 prostate.
Assay [2] deals with HCT-116 colon.
Assay [3] concerns HS 578T breast.
In assay [4] the test system is IGROV1 ovarian.
Assay [5] has as its system MDA-N.
The subject of assay [6] is NCI-H522 lung.
For assay [7], the system named is NCI/ADR-RES ovarian.
The subject of assay [8] is RXF 393 renal.
Assay [9] deals with SW-620 colon.
The subject of assay [10] is TK-10 renal.

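Interpolation was linear, between the two tested concentrations surrounding the appropriate level; five concentrations were tested over 48 hours in 96-well plates. At the TGI there is no net growth.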 Bounds are passed on as bounds.

In general, TGI refers to the concentration giving total growth inhibition. As to `CS(=O)(=O)O.[Ag]`, the TGI was 34.2 µM in assay [1]; 20 µM in [2]; over 100 µM in assay [3]; 13.7 µM in [4]; 19.9 µM in assay [5]; 4.52 µM in assay [6]. The TGI in [7] came out at 74.3 µM; in [8] it was 42 µM; in assay [9], 19.5 µM; in assay [10] it was 7.74 µM.
Regarding `CC(=O)OCC1OC(c2nnc(C)o2)=CC(OC(C)=O)C1OC(C)=O` (stereo not drawn), the TGI in [1], in assay [2], in assay [3], in assay [4], in assay [5] and in assay [6] was over 100 µM each time. In addition, the TGI in assay [7], in assay [8], in assay [9] and in [10] was over 100 µM throughout.
For `CCCCCCCCC/C=C1\CC(CO)(COC(=O)c2ccccc2)OC1=O` (stereo not drawn), the TGI is over 100 µM in [1]; 52.8 µM in [2]; 40.2 µM in assay [3]; 70.4 µM in assay [4]; 43.1 µM in assay [5]; 33.4 µM in [6]. Also, the TGI in assay [7] came to 51.9 µM; in assay [8], 47.4 µM; in assay [9], 34.2 µM; in assay [10] it was 44.4 µM.
On to `CC1CCC2(CC1)N=C1CCC(C)CC1C1(CCC(C)CC1)N2` (stereo not drawn), for which the TGI in [1], in assay [2], in assay [3], in assay [4], in assay [5] and in assay [6] was over 100 µM each time. In addition, the total growth inhibition concentration (TGI) in [7], in assay [8], in assay [9] and in [10] was over 100 µM in each case.
Consider `NCCCCNC1(c2cc3ccccc3s2)CCCCC1`, for which the TGI stood at 23.5 µM in assay [1]; 14.9 µM in [2]; 20.4 µM in assay [3]; 13.1 µM in [4]; 3.39 µM in assay [5]; 6.19 µM in [6]. The TGI amounted to 21.2 µM in assay [7], 14.9 µM in assay [8], 14.6 µM in [9] and 10.4 µM in [10].
With `CC(=O)NC1=C(C)C(=O)c2c(nc3n2CC[C@H]3OC(C)=O)C1=O`, the TGI in assay [1] stood at 29.4 µM; in [2], 3.14 µM; in assay [3], 9.21 µM; in [4], 8.71 µM; in assay [5], 1.69 µM; in assay [6], 3.73 µM. The TGI in [7] was found to be 15.6 µM; in assay [8] it was 3.12 µM; in assay [9] it was 3.26 µM; in assay [10], 13.9 µM.
With `C/C=C\C(CC(=O)NCCC1CN(C(=O)c2ccccc2)c2ccccc21)CC(=O)OC` (stereo not drawn), the TGI in assay [1], in assay [2], in assay [3], in [4], in assay [5] and in [6] was over 100 µM throughout. The TGI in assay [7], in [8], in assay [9] and in assay [10] was over 100 µM throughout.
`C[C@H](CCC1=NCCN1)[C@H]1CC[C@H]2[C@@H]3CC[C@@H]4C[C@H](O)CC[C@]4(C)[C@H]3C[C@H](O)[C@]12C`: the TGI is 28.9 µM in [1]; over 100 µM in assay [2]; 27.8 µM in [3]; 21.9 µM in assay [4]; 31 µM in assay [5]; 19.3 µM in [6]. For the same molecule, the TGI in assay [7] was over 100 µM; in assay [8], 35.9 µM; in assay [9], 44.6 µM; in assay [10] it was 26.9 µM.
As for `Nc1nc2cc(CNc3ccc(C(=O)NC(CCC(=O)O)C(=O)O)cc3)ccc2nc1-c1ccccc1` (stereo not drawn), the TGI in [1], in [2], in assay [3], in assay [4], in assay [5] and in assay [6] was over 10 µM in each case. Besides, the TGI in assay [7], in assay [8], in assay [9] and in assay [10] was over 10 µM throughout.
As to `CC[C@@H]1CC[C@@H]2[C@H](CC[C@]3(C)[C@@H](OS(=O)(=O)c4ccc(C)cc4)CC[C@@H]23)[C@H]1CO`, the TGI in assay [1], in [2], in assay [3], in assay [4], in assay [5] and in [6] was over 100 µM each time. Moreover, the TGI in [7], in assay [8], in [9] and in assay [10] was over 100 µM throughout.
As to `O=C1O[C@]2(c3ccccc3)C(c3ccccc3)=C[C@]2(C(=O)c2ccccc2)C1=O`, the TGI is over 100 µM in assay [1]; over 100 µM in [2]; over 100 µM in assay [3]; over 100 µM in [4]; over 100 µM in [5]; 48.5 µM in assay [6]. The TGI in assay [7] is over 100 µM; in assay [8] it was 5.13 µM; in [9], 45.1 µM; in assay [10] it was 73.5 µM.
In the case of `N#Cc1c(N2CCN(c3ccc([N+](=O)[O-])cc3)CC2)[n+](=O)c2ccc(Cl)cc2n1[O-]`, the TGI in assay [1] is 6.7 µM; in [3], over 100 µM; in assay [4] it was 2.01 µM; in assay [5], over 26.1 µM; in [6] it was 2.36 µM; in [7], 7.85 µM. Besides, the TGI in assay [8] is over 22.7 µM; in assay [9], 1.81 µM; in assay [10], 8.86 µM.
Take `OCCO[P+]1(OCCO)n2c3ccc2C(c2ccccc2)=C2C=CC(=N2)C(c2ccccc2)=c2ccc(n21)=C(c1ccccc1)C1=NC(=C3c2ccccc2)C=C1`: the total growth inhibition concentration (TGI) stood at 1.74 µM in assay [1]; 0.203 µM in assay [2]; 0.206 µM in [3]; 0.092 µM in assay [5]; 0.2 µM in assay [6]; 41.4 µM in assay [7]. Moreover, the TGI stood at 0.563 µM in assay [8], 1.09 µM in assay [9] and 1.5 µM in assay [10].

For the origin of these results see PubChem BioAssay (NCI).
